Assay results as given in the NIST ThermoML archive (doi:10.1021/je060496l).

Tests used:
[1] = xn = mol fraction of the nth substance listed; details: 101 kPa, Liquid
[2] = 101 kPa, Liquid

OCC(O)CO [glycerol] + CCCO
mass density [kg/m3], [1]
Details | x1 = 0.0676 | x1 = 0.1402 | x1 = 0.2185 | x1 = 0.3031 | x1 = 0.3949 | x1 = 0.4946 | x1 = 0.6036 | x1 = 0.723 | x1 = 0.8545 | x1 = 1
298.15 K | 832.8 | 867.3 | 903.5 | 942.9 | 986 | 1032.7 | 1083.1 | 1138.8 | 1198.7 | 1258.9
303.15 K | 828.9 | 863.2 | 900 | 939.3 | 982.1 | 1029.5 | 1079.9 | 1135.7 | 1195.6 | 1255.6
308.15 K | 825 | 859.4 | 896 | 935.6 | 978.4 | 1025.9 | 1076.3 | 1132.4 | 1192.7 | 1252.7
313.15 K | 820.7 | 855.4 | 892.1 | 931.5 | 974.7 | 1022.3 | 1072.7 | 1128.8 | 1189.5 | 1249.5
318.15 K | 816.8 | 851.3 | 888.3 | 927.7 | 970.8 | 1018.4 | 1069.2 | 1125.5 | 1186.1 | 1246.2
323.15 K | 812.5 | 847.2 | 884.1 | 923.6 | 966.8 | 1014.7 | 1065.5 | 1122 | 1182.7 | 1242.9
328.15 K | 808.4 | 843.1 | 880.3 | 919.7 | 963.3 | 1010.8 | 1061.8 | 1118.3 | 1179.2 | 1239.6
333.15 K | 804.3 | 839.2 | 876.3 | 915.7 | 959.4 | 1006.8 | 1058 | 1114.3 | 1175.8 | 1236

OCC(O)CO [glycerol] + OCCCO
[1], x1 = 1
Details | mass density [kg/m3]
298.15 K | 1258.9
303.15 K | 1255.6
308.15 K | 1252.7
313.15 K | 1249.5
318.15 K | 1246.2
323.15 K | 1242.9
328.15 K | 1239.6
333.15 K | 1236

OCCCO [propan-1,3-diol]
[2]
Details | mass density [kg/m3]
298.15 K | 1049.9
303.15 K | 1047
308.15 K | 1044.1
313.15 K | 1040.8
318.15 K | 1037.8
323.15 K | 1034.8
328.15 K | 1031.4
333.15 K | 1028.2
